The experiment concerns myocardial ischemia reperfusion in rat. The experiment can be described thus: Therapeutic effect on myocardial ischemia reperfusion in rat (coronary ligation 45 min, reperfusion 2 h, TCC staining of heart sections). The class given is in vivo, Wistar rats. As to conditions: Group D. How it is done: Wistar rats (male, 200˜240 g) were divided into groups and administered with different dosages of rhNRG-1, placebo or rhThymosin-β4 (as shown in Table 1) after anaesthetized with intra-abdominal injection of 20% urethane (5 ml/kg). Thirty minutes after the drug started to be given to the rats, the anterior descending limb of the left coronary artery was ligated for 45 minutes to cause partial myocardium turned white obviously in the ligation area. After that the ligation thread was loosen to keep coronary blood flow for 2 hours and then take out the heart rapidly and wash vascular fat away with normal saline, and then freeze the heart in −30° C. for one hour.
Cut the heart parallelly from apex to base along coronary sulcus to myocardium sections with the thickness of 1 mm, and then put them into TCC dye liquor for 20 min in 37° C. in a shaker. After staining extra dye was washed immediately with water, and then the sections were put into 4% formalin for one hour. Photo and analyze the total size and the infarction size of were analyzed with Image Analysis Software. Infarction size ratio equals to the ratio of the infarction size and the total size of the myocardium section.

Consider “rhThymosin-β4: produced by Northland (Beijing) Bio-Technology Co Ltd, batch number: 20050728; comparator drug of Group D (SDKPDMAEIEKFDKSKLKKTETQEKNPLPSKETIEQEKQAGES; Thymosin beta-4; UniProt P62328 2-44, looked up)”, for which the “Infarction size compared with other groups” value (2.5 mg/kg single intraperitoneal injection) is listed as “no significant difference with other groups”. The “The myocardium infarction size ratio” value (2.5 mg/kg single intraperitoneal injection 30 min before ligation, infarction size / total size of myocardium section, mean ± spread, 2.5 mg/kg) turned out to be 0.151±0.030.

The record behind these values is patent publication US11826400B2, “Neuregulin based compositions and uses thereof for preventing, treating or delaying the myocardial ischemia-reperfusion injury” (ZENSUN (SHANGHAI) SCIENCE & TECHNOLOGY LIMITED, priority 2010, dated 2023).
